Assay results: patent publication US12077555B2, “STAT degraders and uses thereof” (Kymera Therapeutics, Inc., priority 2019, dated 2024)

The compounds below were run against STAT3 (Homo sapiens, UniProt P40763) (assay: STAT3 HiBiT degradation assay in transfected A549 cells). Conditions: A549, 24 h; read-out: STAT3 HiBiT A549 degradation 24 h: Average external-Abs DC50.
STAT3, sequence (P40763 whole entry): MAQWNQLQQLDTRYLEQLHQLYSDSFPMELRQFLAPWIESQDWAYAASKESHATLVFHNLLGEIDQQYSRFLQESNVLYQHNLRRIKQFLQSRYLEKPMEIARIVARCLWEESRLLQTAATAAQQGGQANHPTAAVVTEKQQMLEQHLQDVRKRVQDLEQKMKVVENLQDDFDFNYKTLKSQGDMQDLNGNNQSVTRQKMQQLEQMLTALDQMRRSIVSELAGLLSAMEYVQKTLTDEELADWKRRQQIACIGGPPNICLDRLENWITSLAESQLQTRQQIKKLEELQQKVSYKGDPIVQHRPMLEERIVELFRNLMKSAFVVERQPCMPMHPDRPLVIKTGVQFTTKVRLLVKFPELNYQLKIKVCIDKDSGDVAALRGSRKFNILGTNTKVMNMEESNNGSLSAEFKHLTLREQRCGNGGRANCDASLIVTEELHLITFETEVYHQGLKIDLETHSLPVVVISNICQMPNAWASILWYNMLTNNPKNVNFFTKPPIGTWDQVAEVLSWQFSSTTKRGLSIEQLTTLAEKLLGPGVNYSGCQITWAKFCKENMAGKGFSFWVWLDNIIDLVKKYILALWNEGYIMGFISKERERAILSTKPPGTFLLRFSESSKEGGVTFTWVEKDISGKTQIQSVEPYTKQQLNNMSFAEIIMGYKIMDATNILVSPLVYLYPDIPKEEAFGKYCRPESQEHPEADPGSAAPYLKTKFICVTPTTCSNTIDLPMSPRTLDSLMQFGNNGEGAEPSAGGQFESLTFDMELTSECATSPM
Type: cell-based
Set-up: expressed in transfected cells; host or cells: A549
Summary of the method: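 Transfected A549 cells (~2000/well) plated 24 h, then treated 24 h at 37 °C, 5% CO2 with a 3-fold, 10-point compound dilution. HiBiT lytic luminescence read after 10 min at room temperature; remaining STAT3 normalized to negative and positive controls, four-parameter fit. DC50 binned A <0.01, B 0.01–0.1, C 0.1–1.0, D >1.0 µM.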
`Cc1ncsc1-c1ccc(CNC(=O)[C@@H]2C[C@@H](O)CN2C(=O)[C@@H](NC(=O)CCC/C=C/c2ccc(CO[C@H](C)[C@H](CCC(N)=O)NC(=O)[C@@H]3Cc4cccc5c4N3C(=O)[C@@H](NC(=O)c3cc4cc(C(=O)P(=O)(O)O)ccc4[nH]3)CC5)cc2)C(C)(C)C)cc1` [Compound I-129, diammonium 2-[[(2S,11S)-2-[[(3S,4R)-1-carbamoyl-4-([4-[(1E)-5-[[(2S)-1-[(2S,4R)-4-hydroxy-2-([[4-(4-methyl-1,3-thiazol-5-yl)phenyl]methyl]carbamoyl)pyrrolidin-1-yl]-3,3-dimethyl-1-oxobutan-2-yl]carbamoyl]pent-1-en-l-yl]phenyl]methoxy)pentan-3-yl]carbamoyl]-12-oxo-1-azatricyclo[6.4.1.0^[4,13]]trideca-4(13),5,7-trien-11-yl]carbamoyl]-1H-indole-5-carbonylphosphonate] was tested, and the DC50 was 100 to 1000 nM.
`Cn1c(=O)n(C2CCC(=O)NC2=O)c2ccc(C[C@H]3CC[C@H](CCC(=O)N4CC[C@H]5CC[C@@H](C(=O)N[C@@H](CCC(N)=O)C(=O)NC(c6ccccc6)c6ccccc6)N5C(=O)[C@@H](NC(=O)c5cc6cc(C(=O)P(=O)(O)O)ccc6[nH]5)C4)CC3)cc21` (stereo partly drawn) [Compound I-167] was tested, and the DC50 was 100 to 1000 nM.
Work on `Cn1c(=O)n(C2CCC(=O)NC2=O)c2ccc(CC3CCN(CC(=O)N4CC[C@H]5CC[C@@H](C(=O)N[C@@H](CCC(N)=O)C(=O)NC(c6ccccc6)c6ccccc6)N5C(=O)[C@@H](NC(=O)c5cc6cc(C(=O)P(=O)(O)O)ccc6[nH]5)C4)CC3)cc21` (stereo partly drawn) [Compound I-158, 2-[[(5S,8S,10aR)-8-[[(1S)-3-carbamoyl-1-(diphenylmethylcarbamoyl)propyl]carbamoyl]-3-[2-(4-[[1-(2,6-dioxopiperidin-3-yl)-3-methyl-2-oxo-1,3-benzodiazol-5-yl]methyl]piperidin-1-yl)acetyl]-6-oxo-octahydropyrrolo[1,2-a][1,5]diazocin-5-yl]carbamoyl]-1H-indole-5-carbonylphosphonic acid] yielded a DC50 greater than 1000 nM.
With `Cc1ncsc1-c1ccc(CNC(=O)[C@@H]2C[C@@H](O)CC2C(=O)[C@@H](NC(=O)CCCCC/C=C\COC[C@H](CCC(N)=O)NC(=O)[C@@H]2Cc3cccc4c3N2C(=O)[C@@H](NC(=O)c2cc3cc(C(=O)P(=O)(O)O)ccc3[nH]2)CC4)C(C)(C)C)cc1` (stereo partly drawn) [Compound I-171] the DC50 was 100 to 1000 nM.
`Cc1ncsc1-c1ccc([C@H](C)NC(=O)[C@@H]2C[C@@H](O)CN2C(=O)[C@@H](NC(=O)CCCCCc2cccc(OC[C@H](CCC(N)=O)NC(=O)[C@@H]3CCCN3C(=O)[C@H](CC(C)C)NC(=O)c3cc4cc(C(=O)P(=O)(O)O)ccc4[nH]3)c2F)C(C)(C)C)cc1` [Compound I-279] gave a DC50 of less than 10 nM.
With `Cc1ncsc1-c1ccc(CNC(=O)[C@@H]2C[C@H](O)CN2C(=O)[C@@H](NC(=O)CCCCc2ccc(CO[C@H](C)[C@H](CCC(N)=O)NC(=O)[C@@H]3Cc4cccc5c4N3C(=O)[C@@H](NC(=O)c3cc4cc(C(=O)P(=O)(O)O)ccc4[nH]3)CC5)cc2)C(C)(C)C)cc1` [Compound I-121, diammonium 2-[[(2S,11S)-2-[[(3S,4R)-1-carbamoyl-4-[[4-(4-[[(2S)-1-[(2S,4S)-4-hydroxy-2-([[4-(4-methyl-1,3-thiazol-5-yl)phenyl]methyl]carbamoyl)pyrrolidin-1-yl]-3,3-dimethyl-1-oxobutan-2-yl]carbamoyl]butyl)phenyl]methoxy]pentan-3-yl]carbamoyl]-12-oxo-1-azatricyclo[6.4.1.0^[4,13]]trideca-4(13),5,7-trien-11-yl]carbamoyl]-1H-indole-5-carbonylphosphonate] the DC50 was greater than 1000 nM.
With `Cn1c(=O)n(C2CCC(=O)NC2=O)c2ccc(C3CCN(CCC(=O)N4CC[C@H]5CC[C@@H](C(=O)N[C@@H](CCC(N)=O)C(=O)NC(c6ccccc6)c6ccccc6)N5C(=O)[C@@H](NC(=O)c5cc6cc(C(=O)P(=O)(O)O)ccc6[nH]5)C4)CC3)cc21` (stereo partly drawn) [Compound I-177, 2-[[(5S,8S,10aR)-8-[[(1S)-3-carbamoyl-1-(diphenylmethylcarbamoyl)propyl]carbamoyl]-3-(3-[4-[1-(2,6-dioxopiperidin-3-yl)-3-methyl-2-oxo-1,3-benzodiazol-5-yl]piperidin-1-yl]propanoyl)-6-oxo-octahydropyrrolo[1,2-a][1,5]diazocin-5-yl]carbamoyl]-1H-indole-5-carbonylphosphonic acid] the DC50 was 100 to 1000 nM.
`Cc1ncsc1-c1ccc(CNC(=O)[C@@H]2C[C@@H](O)CN2C(=O)[C@@H](NC(=O)CCCc2ccc3cc(CO[C@H](C)[C@H](CCC(N)=O)NC(=O)[C@@H]4Cc5cccc6c5N4C(=O)[C@@H](NC(=O)c4cc5cc(C(=O)P(=O)(O)O)ccc5[nH]4)CC6)ccc3c2)C(C)(C)C)cc1` [Compound I-127, diammonium 2-[[(2S,11S)-2-[[(3S,4R)-1-carbamoyl-4-[[6-(3-[[(2S)-1-[(2S,4R)-4-hydroxy-2-([[4-(4-methyl-1,3-thiazol-5-yl)phenyl]methyl]carbamoyl)pyrrolidin-1-yl]-3,3-dimethyl-1-oxobutan-2-yl]carbamoyl]propyl)naphthalen-2-yl]methoxy]pentan-3-yl]carbamoyl]-12-oxo-1-azatricyclo[6.4.1.0^[4,13]]trideca-4(13),5,7-trien-11-yl]carbamoyl]-1H-indole-5-carbonylphosphonate] gave a DC50 of 100 to 1000 nM.
`Cc1ncsc1-c1ccc(CNC(=O)[C@@H]2C[C@@H](O)CN2C(=O)C(NC(=O)CCCCc2ccc(CNC(=O)[C@H](CCC(N)=O)NC(=O)[C@@H]3Cc4cccc5c4N3C(=O)[C@@H](NC(=O)c3cc4cc(C(=O)P(=O)(O)O)ccc4[nH]3)CC5)cc2)C(C)(C)C)cc1` (stereo partly drawn) [Compound I-139] showed a DC50 greater than 1000 nM.
Work on `Cn1c(=O)n(C2CCC(=O)NC2=O)c2ccc(N3CC(CCCC(=O)N4CC[C@H]5CC[C@@H](C(=O)N[C@@H](CCC(N)=O)C(=O)NC(c6ccccc6)c6ccccc6)N5C(=O)[C@@H](NC(=O)c5cc6cc(C(=O)P(=O)(O)O)ccc6[nH]5)C4)C3)cc21` (stereo partly drawn) [Compound I-135, 2-[[(5S,8S,10aR)-8-[[(1S)-3-carbamoyl-1-(diphenylmethylcarbamoyl)propyl]carbamoyl]-3-(4-[1-[1-(2,6-dioxopiperidin-3-yl)-3-methyl-2-oxo-1,3-benzodiazol-5-yl]azetidin-3-yl]butanoyl)-6-oxo-octahydropyrrolo[1,2-a][1,5]diazocin-5-yl]carbamoyl]-1H-indole-5-carbonylphosphonic acid] yielded a DC50 of 100 to 1000 nM.
Compound `Cc1ncsc1-c1ccc([C@H](C)NC(=O)[C@@H]2C[C@@H](O)CN2C(=O)[C@@H](NC(=O)CCCCCc2cc(OC[C@H](CCC(N)=O)NC(=O)[C@@H]3Cc4cccc5c4N3C(=O)[C@@H](NC(=O)c3cc4cc(C(=O)P(=O)(O)O)ccc4[nH]3)CC5)ccc2F)C(C)(C)C)cc1` [Compound I-215] has a DC50 of 10 to 100 nM.
Compound `Cn1c(=O)n(C2CCC(=O)NC2=O)c2ccc(CC3CCC(CC(=O)N4CC[C@H]5CC[C@@H](C(=O)N[C@H](CCC(N)=O)C(=O)NCc6ccc(S(C)(=O)=O)cc6)N5C(=O)[C@@H](NC(=O)c5cc6cc(C(=O)P(=O)(O)O)ccc6[nH]5)C4)CC3)cc21` (stereo partly drawn) [Compound I-230, 2-[[(5S,8S,10aR)-8-[[(1R)-3-carbamoyl-1-[[(4-methanesulfonylphenyl)methyl]carbamoyl]propyl]carbamoyl]-6-oxo-3-[2-[(1S,4S)-4-[[1-(2,6-dioxopiperidin-3-yl)-3-methyl-2-oxo-1,3-benzodiazol-5-yl]methyl]cyclohexyl]acetyl]-octahydropyrrolo[1,2-a][1,5]diazocin-5-yl]carbamoyl]-1H-indole-5-carbonylphosphonic acid] has a DC50 greater than 1000 nM.

Same assay, conditions: read-out: STAT3 HiBiT A549 degradation 24 h: Average external-Abs DC50; A549, 24 h
`CC(=O)N1CC[C@H]2CC[C@@H](C(=O)N[C@@H](CCC(N)=O)COc3cc(C)cc(CCCCC(=O)N[C@H](C(=O)N4C[C@H](O)C[C@H]4C(=O)N[C@@H](C)c4ccc(-c5scnc5C)cc4)C(C)(C)C)c3F)N2C(=O)[C@@H](NC(=O)c2cc3cc(C(=O)P(=O)(O)O)ccc3[nH]2)C1` [Compound I-236, diammonium 2-[[(5S,8S,10aR)-3-acetyl-8-[[(2S)-4-carbamoyl-1-[2-fluoro-3-(4-[[(2S)-1-[(2S,4R)-4-hydroxy-2-[[(1S)-1-[4-(4-methyl-1,3-thiazol-5-yl)phenyl]ethyl]carbamoyl]pyrrolidin-1-yl]-3,3-dimethyl-1-oxobutan-2-yl]carbamoyl]butyl)-5-methylphenoxy]butan-2-yl]carbamoyl]-6-oxo-octahydropyrrolo[1,2-a][1,5]diazocin-5-yl]carbamoyl]-1H-indole-5-carbonylphosphonate] showed a DC50 of 100 to 1000 nM.
`Cn1c(=O)n(C2CCC(=O)NC2=O)c2cc(CCCCCCC(=O)N3CC[C@H]4CC[C@@H](C(=O)N[C@@H](CCC(N)=O)C(=O)NC(c5ccccc5)c5ccccc5)N4C(=O)[C@@H](NC(=O)c4cc5cc(C(=O)P(=O)(O)O)ccc5[nH]4)C3)ccc21` (stereo partly drawn) [Compound I-134, 2-[[(5S,8S,10aR)-8-[[(1S)-3-carbamoyl-1-(diphenylmethylcarbamoyl)propyl]carbamoyl]-3-[7-[3-(2,6-dioxopiperidin-3-yl)-1-methyl-2-oxo-1,3-benzodiazol-5-yl]heptanoyl]-6-oxo-octahydropyrrolo[1,2-a][1,5]diazocin-5-yl]carbamoyl]-1H-indole-5-carbonylphosphonic acid] was tested, and the DC50 was greater than 1000 nM.
`C[C@@H](OCc1ccc(Br)cc1)[C@H](CCC(N)=O)NC(=O)[C@@H]1CC[C@@H]2CCN(C(=O)CCCCCCc3ccc4c(c3)n(C)c(=O)n4C3CCC(=O)NC3=O)C[C@H](NC(=O)c3cc4cc(C(=O)P(=O)(O)O)ccc4[nH]3)C(=O)N21` (stereo partly drawn) [Compound I-183, 2-[[(5S,8S,10aR)-8-[[(3S,4R)-4-[(4-bromophenyl)methoxy]-1-carbamoylpentan-3-yl]carbamoyl]-3-[7-[1-(2,6-dioxopiperidin-3-yl)-3-methyl-2-oxo-1,3-benzodiazol-5-yl]heptanoyl]-6-oxo-octahydropyrrolo[1,2-a][1,5]diazocin-5-yl]carbamoyl]-1H-indole-5-carbonylphosphonic acid] showed a DC50 of 100 to 1000 nM.
